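Five compound concentrations were applied to cells in 96-well plates for 48 hours; endpoints were derived by simple linear interpolation of the resulting dose-response curve. GI50: concentration for 50% inhibition of growth. TGI marks complete inhibition of growth.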

Drawing on PubChem BioAssay (NCI), this text covers GI50 and TGI for 18 molecules.

Test systems include HCC-2998 colon; SR leukemia; SNB-19 CNS; COLO 205 colon; IGROV1 ovarian; SK-OV-3 ovarian; HCT-15 colon; HOP-62 NSCLC; NCI-H226 lung; K-562 leukemia.
Common to all, as to experiment: NCI tumour cell line growth inhibition, 48 h

For `O=C(O)C(O)C(O)C1[O][Sb][O]C1CO` (configuration not stated), the GI50 in the experiment with HCC-2998 colon, in the experiment on SR leukemia, in the experiment with SNB-19 CNS, in the experiment with COLO 205 colon, with IGROV1 ovarian and in the experiment with SK-OV-3 ovarian was greater than 100 µM throughout. Moreover, the GI50 in the experiment on HCT-15 colon, in the experiment on HOP-62 NSCLC, in the experiment with NCI-H226 lung and in the experiment with K-562 leukemia was greater than 100 µM each time. The TGI in the experiment on HCC-2998 colon, in the experiment with SR leukemia, with SNB-19 CNS, in the experiment on COLO 205 colon, in the experiment on IGROV1 ovarian and with SK-OV-3 ovarian was greater than 100 µM in each case. The TGI with HCT-15 colon, in the experiment on HOP-62 NSCLC, in the experiment on NCI-H226 lung and in the experiment on K-562 leukemia was greater than 100 µM each time.
In the case of `Nc1nc(Cl)cc(NCCCCCCCCCCNc2cc(Cl)nc(N)n2)n1`, the TGI in the experiment with HCC-2998 colon, in the experiment on SR leukemia, in the experiment with SNB-19 CNS, in the experiment on COLO 205 colon, in the experiment with IGROV1 ovarian and in the experiment with SK-OV-3 ovarian was greater than 100 µM throughout. For the same molecule, the TGI with HCT-15 colon was greater than 100 µM; in the experiment with HOP-62 NSCLC, greater than 100 µM; in the experiment on NCI-H226 lung it was 20.3 µM; with K-562 leukemia, greater than 100 µM.
In the case of `COCCOC(=O)CCn1cc(F)c(=O)[nH]c1=O`, the GI50 is 2.97 µg/mL in the experiment with SR leukemia; 41.6 µg/mL in the experiment on SNB-19 CNS; 4.75 µg/mL with COLO 205 colon; 7.36 µg/mL with IGROV1 ovarian; 37.1 µg/mL in the experiment on SK-OV-3 ovarian; 6.72 µg/mL in the experiment with HCT-15 colon. Moreover, the GI50 is 17.3 µg/mL with HOP-62 NSCLC, 119 µg/mL in the experiment on NCI-H226 lung and 21.3 µg/mL in the experiment with K-562 leukemia. Also, the TGI in the experiment on SR leukemia, in the experiment on SNB-19 CNS, in the experiment with COLO 205 colon, with IGROV1 ovarian, with SK-OV-3 ovarian and in the experiment with HCT-15 colon was greater than 150 µg/mL in each case. The TGI in the experiment on HOP-62 NSCLC, in the experiment with NCI-H226 lung and in the experiment on K-562 leukemia was greater than 150 µg/mL each time.
`C/C(=N\N=C(N)N)c1sc(-c2nc(C)c(/C(C)=N/N=C(N)N)s2)nc1C`: the TGI in the experiment with HCC-2998 colon is greater than 100 µM; with SR leukemia, greater than 66.4 µM; in the experiment with SNB-19 CNS it was greater than 100 µM; in the experiment with COLO 205 colon, greater than 90.6 µM; with IGROV1 ovarian, greater than 100 µM; in the experiment on SK-OV-3 ovarian, greater than 100 µM. The TGI was greater than 66.9 µM in the experiment on HCT-15 colon, greater than 100 µM in the experiment on HOP-62 NSCLC, greater than 100 µM in the experiment on NCI-H226 lung and greater than 100 µM with K-562 leukemia.
`NC(=O)c1ccc(NC(=O)c2oc3ccccc3c2-c2cnn(-c3ccccc3)c2)cc1`: the GI50 with HCC-2998 colon is greater than 100 µM; in the experiment on SR leukemia, greater than 100 µM; in the experiment with SNB-19 CNS, 8.98 µM; with SK-OV-3 ovarian, greater than 100 µM; in the experiment on HOP-62 NSCLC, 3.33 µM; with NCI-H226 lung, 2.98 µM. Moreover, the GI50 with K-562 leukemia was greater than 100 µM. In addition, the TGI was greater than 100 µM with HCC-2998 colon; greater than 100 µM in the experiment on SR leukemia; greater than 100 µM in the experiment on SNB-19 CNS; greater than 100 µM with SK-OV-3 ovarian; 46.6 µM in the experiment with HOP-62 NSCLC; greater than 100 µM in the experiment with NCI-H226 lung. The molecule also yielded a TGI in the experiment on K-562 leukemia greater than 100 µM.
Turning to `Cc1ccc(C)c(NC(=O)CCc2n[nH]c(=S)o2)c1`, the TGI in the experiment on HCC-2998 colon, in the experiment with SR leukemia, with SNB-19 CNS, in the experiment with COLO 205 colon, with IGROV1 ovarian and with HCT-15 colon was greater than 100 µM each time. Moreover, the TGI in the experiment on HOP-62 NSCLC, in the experiment on NCI-H226 lung and with K-562 leukemia was greater than 100 µM in each case.
With `COc1ccc(/C=C/CO)cc1OC`, the TGI in the experiment with HCC-2998 colon, with SR leukemia, with SNB-19 CNS, with COLO 205 colon, with IGROV1 ovarian and with SK-OV-3 ovarian was greater than 100 µM in each case. The TGI in the experiment with HCT-15 colon, in the experiment on NCI-H226 lung and in the experiment on K-562 leukemia was greater than 100 µM in each case.
On to `COc1cc([N+](=O)[O-])c2ncccc2c1O`, for which the GI50 with SR leukemia was 20.6 µM; in the experiment on SNB-19 CNS, 3.19 µM; with COLO 205 colon, 1.7 µM; with IGROV1 ovarian it was 4.51 µM; in the experiment on SK-OV-3 ovarian, 3.36 µM; in the experiment with HCT-15 colon, 2.56 µM. Further, the GI50 in the experiment on HOP-62 NSCLC is 2.05 µM; in the experiment on NCI-H226 lung, 2.01 µM; in the experiment with K-562 leukemia, 38.2 µM. The TGI was greater than 100 µM in the experiment with SR leukemia; greater than 100 µM with SNB-19 CNS; 3.46 µM in the experiment on COLO 205 colon; 25.5 µM in the experiment with IGROV1 ovarian; 14.4 µM with SK-OV-3 ovarian; 13.4 µM in the experiment on HCT-15 colon. Besides, the TGI was 4.96 µM in the experiment on HOP-62 NSCLC, 6.27 µM in the experiment on NCI-H226 lung and greater than 100 µM in the experiment on K-562 leukemia.
`CC(C)(CN1CCCCC1)C(=O)CC(SCCS(=O)(=O)O)c1ccc(Cl)c(Cl)c1` (configuration not stated): the TGI was found to be 26.2 µM with HCC-2998 colon; 6.38 µM in the experiment on SR leukemia; 23.1 µM with SNB-19 CNS; 7.25 µM in the experiment with COLO 205 colon; 13.5 µM in the experiment with IGROV1 ovarian; 45 µM in the experiment with SK-OV-3 ovarian. The results for the TGI in the experiment on HCT-15 colon, with HOP-62 NSCLC and with NCI-H226 lung were 5.35 µM, 18.7 µM and 39.1 µM, respectively.
Regarding `C/C(=N\NC(=S)Nc1ccc([N+](=O)[O-])cc1S(=O)(=O)O)c1ccccn1`, the TGI in the experiment with HCC-2998 colon was greater than 100 µM; in the experiment with SR leukemia, 75.6 µM; in the experiment with COLO 205 colon it was greater than 100 µM; with IGROV1 ovarian it was greater than 100 µM; in the experiment on HCT-15 colon it was greater than 100 µM; in the experiment on HOP-62 NSCLC, greater than 100 µM. The TGI with NCI-H226 lung and with K-562 leukemia was greater than 100 µM in each case.
Consider `O=[N+]([O-])C(=C(c1ccccc1)c1ccccc1)[N+](=O)[O-]`, for which the TGI in the experiment on HCC-2998 colon came to 24 µM; in the experiment with SR leukemia it was 28.5 µM; with SNB-19 CNS it was 31.3 µM; in the experiment with COLO 205 colon, 24.9 µM; with IGROV1 ovarian, 23.2 µM; in the experiment on HCT-15 colon, 32.6 µM. Also, the TGI in the experiment with NCI-H226 lung is 61.5 µM; in the experiment with K-562 leukemia it was greater than 100 µM.
`S=C1OC2C3C4CC5C3C(O1)C1C5C4C21` (configuration not stated): the TGI in the experiment with HCC-2998 colon, with SR leukemia, in the experiment on SNB-19 CNS, with COLO 205 colon, in the experiment with IGROV1 ovarian and in the experiment with SK-OV-3 ovarian was greater than 100 µM in each case. Besides, the TGI with HCT-15 colon, in the experiment with HOP-62 NSCLC and in the experiment with NCI-H226 lung was greater than 100 µM throughout.
In the case of `O=C1CCC(c2ccccc2)(c2ccccc2)CC1`, the TGI was greater than 100 µM in the experiment on SR leukemia; greater than 100 µM in the experiment on SNB-19 CNS; 89.9 µM with COLO 205 colon; greater than 100 µM in the experiment on IGROV1 ovarian; greater than 100 µM with SK-OV-3 ovarian; greater than 100 µM in the experiment with HCT-15 colon. The TGI with HOP-62 NSCLC, with NCI-H226 lung and in the experiment on K-562 leukemia was greater than 100 µM in each case.
`ClCc1ccc(Cn2cnc3ncnc(Cl)c32)cc1`: the GI50 in the experiment with HCC-2998 colon is 1.42 µM; in the experiment on SR leukemia it was 0.822 µM; in the experiment with SNB-19 CNS, 1.72 µM; in the experiment with COLO 205 colon it was 1.9 µM; in the experiment with IGROV1 ovarian it was 7.61 µM; with SK-OV-3 ovarian, 11.3 µM. For the same molecule, the results for the GI50 with HOP-62 NSCLC, with NCI-H226 lung and with K-562 leukemia were 1.78 µM, 2.99 µM and 3.03 µM, respectively. For the same molecule, the TGI in the experiment with HCC-2998 colon was found to be 2.87 µM; in the experiment on SR leukemia, 2.7 µM; in the experiment with SNB-19 CNS, 3.15 µM; with COLO 205 colon, 3.78 µM; with IGROV1 ovarian, 31.1 µM; with SK-OV-3 ovarian, 23.3 µM. Moreover, the values for the TGI in the experiment on HOP-62 NSCLC, with NCI-H226 lung and in the experiment with K-562 leukemia were 3.16 µM, 12 µM and greater than 100 µM, respectively.
For `C(=C1/CCCCC([n+]2ccccc2)=N1)/c1ccccc1`, the TGI in the experiment on HCC-2998 colon, in the experiment on SR leukemia, with COLO 205 colon, in the experiment with SK-OV-3 ovarian, in the experiment on HCT-15 colon and with HOP-62 NSCLC was greater than 100 µM in each case. The TGI in the experiment with NCI-H226 lung and in the experiment with K-562 leukemia was greater than 100 µM each time.
Regarding `CC1=NN(C(=O)Cc2ccccc2)C(=O)/C1=C\c1cccc(O)c1`, the TGI with HCC-2998 colon, in the experiment on SR leukemia, in the experiment with SNB-19 CNS, with COLO 205 colon, in the experiment with HCT-15 colon and with HOP-62 NSCLC was greater than 100 µM throughout. Further, the TGI in the experiment on NCI-H226 lung and in the experiment on K-562 leukemia was greater than 100 µM each time.
As for `C=C1C(=O)O[C@H]2[C@H](OC(C)=O)[C@@H](C)CCC/C(C)=C/CC[C@]3(CO3)[C@H](O)C[C@@H]12`, the GI50 with HCC-2998 colon was 15.2 µM; with SR leukemia, 1.32 µM; with SNB-19 CNS, 15.2 µM; with COLO 205 colon, 3.89 µM; in the experiment with IGROV1 ovarian it was 3.37 µM; with SK-OV-3 ovarian, 9.12 µM. For the same molecule, the GI50 with HCT-15 colon was 1.84 µM; in the experiment on NCI-H226 lung, 16.3 µM; in the experiment with K-562 leukemia, 1.85 µM. Besides, the TGI in the experiment on HCC-2998 colon was determined as 28.4 µM; with SR leukemia it was 3.94 µM; in the experiment on SNB-19 CNS it was 28.5 µM; in the experiment on COLO 205 colon, 13.7 µM; with IGROV1 ovarian, 12.8 µM; in the experiment on SK-OV-3 ovarian, 21.7 µM. Also, the TGI in the experiment with HCT-15 colon was found to be 3.76 µM; in the experiment with NCI-H226 lung, 38.6 µM; in the experiment with K-562 leukemia, 5.06 µM.
With `CCOC(=O)c1cc2cc([N+](=O)[O-])ccc2oc1=O`, the TGI in the experiment on HCC-2998 colon, with SR leukemia, in the experiment with SNB-19 CNS, in the experiment with COLO 205 colon, in the experiment with IGROV1 ovarian and in the experiment with HCT-15 colon was greater than 100 µM throughout. Moreover, the TGI with HOP-62 NSCLC, in the experiment on NCI-H226 lung and in the experiment with K-562 leukemia was greater than 100 µM throughout.
